Measured values: patent publication US20260297095A1, “NOVEL PYRROLOTRIAZINE DERIVATIVE AND USE THEREOF” (Pelemed Co., Ltd., priority 2024, published 2026)

Tests used:
YES1 kinase = YES1 kinase (Homo sapiens, UniProt P07947); experiment: YES1 kinase inhibition, ADP Glo assay (Promega); type: biochemical; conditions: for inhibition at 0.01 µM: compound 10 nM, read-out: YES1 enzyme, % inhibition, 10 nM; for inhibition at 0.1 µM: compound 100 nM, read-out: YES1 enzyme, % inhibition, 100 nM
Procedure: To evaluate the inhibitory activity against YES1 kinase of the compound according to the present invention, ADP Glo assay (Promega) was used, and the following method was performed with reference to the Promega kinase enzyme system protocol. To proceed with the experiment, buffers A-F and compound dilution plates were required.
To prepare A.4X reaction buffer, 800 μl of 5X reaction buffer and 200 μl of distilled water were used. To prepare B.4X kinase buffer, 996.6 μl of A.4X reaction buffer, 2 μl of 0.1M DTT, and 3.2 μl of 2.5M MnCl2 were added and mixed. To prepare C.1X kinase buffer (containing 5% DMSO) used for compound dilution, 250 μl of B.4X kinase buffer, 700 μl of distilled water, and 50 μl of DMSO were added, so that the final DMSO concentration became 5%. Then, 10 mM compounds were diluted 100-fold to prepare 100 μM solutions, and then D.5X inhibitor solution was prepared so that the compound concentration became 5 uM. Using a 96-well plate, 5 μM compounds were 3-fold diluted using C.1X kinase buffer (containing 5% DMSO) to prepare compound plates with concentrations ranging from 0.25 μM to 5 μM. The resulting plates were stored at room temperature. To prepare E. 2.5X ATP/substrate mixture, 50 μl of B.4X kinase buffer, 50 μl of […], and 100 μl of substrate were mixed. To prepare F YES1 kinase enzyme solution, 35 μl of B.4X kinase buffer, 0.4 μl of YES1 enzyme, and 104.6 μl of distilled water were used. Once the diluted compound plates, ATP/substrate mixture, and YES1 kinase solution were all prepared, 3 μL each was transferred from the diluted compound plate to a luciferase 96-well white plate (Since the total volume of the ATP/substrate and YES1 kinase solution that reacts with the compound is 15 μL, the compounds were diluted 5-fold, making the final compound concentration 0.05 μM-1 μM). Then, 6 μL of F. YES1 Kinase Enzyme Solution was transferred to each well, pipetted 10 times to mix, and incubated at room temperature in a shaker for 10 minutes. Next, 6 μL of E. 2.5X ATP/Substrate Mixture was transferred to each well, pipetted 10 times to mix, and centrifuged at 12,000 rpm for 5 minutes. The plate was then incubated in a shaker at room temperature for 40 minutes. After that, 15 μL of ADP-Glo Reagent, dissolved at room temperature, was added to each well, pipetted 10 times, and incubated in a shaker at room temperature for 40 minutes. Finally, 30 μL of Kinase Detection Reagent, dissolved at room temperature, was added, pipetted 10 times, incubated in a shaker at room temperature for 30 minutes. Luminescence was measured using a luminescence plate reader. Then, the background value was subtracted from all measured values, and the YES1 kinase activity at compound concentrations of 1 nM, 10 nM, and 100 nM was calculated. The measured values were calculated as percentages using the average value of the negative control. Graphs were drawn using GraphPad Prism, and the enzyme activity was calculated as a percentage of YES1 kinase inhibition at compound concentrations of 1 nM, 10 nM, and 100 nM. IC50 values were obtained using Microsoft Excel.

[1] = tested on: KYSE-70 esophageal cancer cell line; experiment: Cell growth inhibition of KYSE-70 (Sulforhodamine B); type: cell-based; conditions: Homo sapiens; KYSE-70, 72 hours; read-out: KYSE70 GI50
Procedure: The cell line according to the present invention was selected as KYSE-70, an esophageal cancer cell line in which YES1 is amplified. The evaluation of cell growth inhibition was performed as follows.
KYSE-70 was cultured in RPMI-1640 (Capricorn) supplemented with 10% FBS (Cellgro). The cells were seeded 24 hours prior to compound treatment, into three 96-well F-bottom clear plates (Greiner), with 7,500 cells per well in 180 μL of medium. The 10 mM compound was diluted 100-fold in medium to prepare a 100 μM compound, which was then placed into a 96-well plate and further 3-fold diluted in medium to prepare a compound plate with concentrations ranging from 0.046 μM to 100 μM. 20 μL of each compound from the drug plate was added to the cell-seeded plates to achieve final concentrations of 0.0046 μM to 10 μM. At the same time, 50 μL of 33% trichloroacetic acid was injected into one plate and the plate was fixed by incubating at 4° C. This was referred to as the Do plate. Viable cells were measured 72 hours after compound treatment by injecting 50 μL of 33% trichloroacetic acid and incubating at 4° C. for more than 1 hour to fix the cells. This was referred to as the D3 plate. After the Do plate and D3 plates were washed 5 times with sterile water, 100 μL of 0.04% Sulforhodamine B solution in 1% acetic acid was added and reacted for 1 hour to stain the cells. After staining, the plates were washed 4 times with 1% acetic acid solution and completely dried. Then, the Sulforhodamine B bound to cellular proteins was completely dissolved with 10 mM Tris base solution (pH 10.5). The absorbance was measured at a wavelength of 510 nm using a microplate reader (TECAN, sunrise microplate reader). The analysis was performed using GraphPad Prism. The average absorbance of the Do plate was set to 0%, and the average absorbance of the negative control of the D3 plate was set to 100%, from which a graph was drawn and the GI50 values were calculated. Each test was performed twice.

YES1 kinase, sequence (P07947 whole entry): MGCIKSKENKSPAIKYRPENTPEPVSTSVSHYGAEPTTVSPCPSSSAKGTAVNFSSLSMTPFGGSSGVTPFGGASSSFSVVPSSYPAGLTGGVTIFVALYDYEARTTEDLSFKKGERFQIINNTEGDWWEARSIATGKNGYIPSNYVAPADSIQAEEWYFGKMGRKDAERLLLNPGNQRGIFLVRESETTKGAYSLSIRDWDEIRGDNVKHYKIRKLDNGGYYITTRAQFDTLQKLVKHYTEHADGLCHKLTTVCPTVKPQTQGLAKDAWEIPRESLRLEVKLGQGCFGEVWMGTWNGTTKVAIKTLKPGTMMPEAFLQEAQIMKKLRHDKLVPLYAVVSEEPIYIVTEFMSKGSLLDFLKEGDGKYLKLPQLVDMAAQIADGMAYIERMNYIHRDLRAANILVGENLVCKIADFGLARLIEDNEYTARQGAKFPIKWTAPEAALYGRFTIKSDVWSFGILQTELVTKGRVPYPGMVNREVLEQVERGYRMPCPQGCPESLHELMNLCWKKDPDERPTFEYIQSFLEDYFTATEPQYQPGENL

SMILES	inhibition at 0.01 µM (YES1 kinase)	inhibition at 0.1 µM (YES1 kinase)	GI50 [1]
COc1cc(-c2cc(-c3ccc4c(c3)OCCN4C)n3ncnc(N)c23)ccc1NC(=O)OC(C)(C)C [Example 7, tert-butyl (4-(4-amino-7-(4-methyl-3,4-dihydro-2H-benzo[b][1,4]oxazin-7-yl)pyrrolo[2,1-f][1,2,4]triazin-5-yl)-2-methoxyphenyl)carbamate]	28%	49%	1000 to 10000 nM
COc1cc(-c2cc(-c3ccc4c(c3)OCC(=O)N4C)n3ncnc(N)c23)ccc1NC(=O)OC(C)(C)C [Example 8, tert-butyl (4-(4-amino-7-(4-methyl-3-oxo-3,4-dihydro-2H-benzo[b][1,4]oxazin-7-yl)pyrrolo[2,1-f][1,2,4]triazin-5-yl)-2-methoxyphenyl)carbamate]	33%	64%	> 10000 nM
COc1cc(-c2cc(-c3ccc4c(c3)oc(=O)n4C)n3ncnc(N)c23)ccc1NC(=O)OC(C)(C)C [Example 9, tert-butyl (4-(4-amino-7-(3-methyl-2-oxo-2,3-dihydrobenzo[d]oxazol-6-yl)pyrrolo[2,1-f][1,2,4]triazin-5-yl)-2-methoxyphenyl)carbamate]	39%	57%	1000 to 10000 nM
COc1cc(-c2cc(N3CC[C@@H](N(C)C)C3)n3ncnc(N)c23)ccc1NC(=O)OC(C)(C)C [Example 10, tert-butyl (R)-(4-(4-amino-7-(3-(dimethylamino)pyrrolidin-1-yl)pyrrolo[2,1-f][1,2,4]triazin-5-yl)-2-methoxyphenyl)carbamate]	8%	38%	1000 to 10000 nM
COc1cc(-c2cc(N3CC[C@H](N(C)C)C3)n3ncnc(N)c23)ccc1NC(=O)OC(C)(C)C [Example 11, tert-butyl (S)-(4-(4-amino-7-(3-(dimethylamino)pyrrolidin-1-yl)pyrrolo[2,1-f][1,2,4]triazin-5-yl)-2-methoxyphenyl)carbamate]	21%	44%	100 to 1000 nM
COc1cc(-c2cc(N3CCC(N)CC3)n3ncnc(N)c23)ccc1NC(=O)OC(C)(C)C [Example 12, tert-butyl (4-(4-amino-7-(4-aminopiperidin-1-yl)pyrrolo[2,1-f][1,2,4]triazin-5-yl)-2-methoxyphenyl)carbamate]	65%	86%	100 to 1000 nM
CCN(CC)C1CCN(c2cc(-c3ccc(NC(=O)OC(C)(C)C)c(OC)c3)c3c(N)ncnn23)CC1 [Example 14, tert-butyl (4-(4-amino-7-(4-(diethylamino)piperidin-1-yl)pyrrolo[2,1-f][1,2,4]triazin-5-yl)-2-methoxyphenyl)carbamate]	19%	77%	100 to 1000 nM
COc1cc(-c2cc(N3CCC(N(C)C)CC3)n3ncnc(N)c23)ccc1NC(=O)OC(C)(C)C [Example 15, tert-butyl (4-(4-amino-7-(4-(dimethylamino)piperidin-1-yl)pyrrolo[2,1-f][1,2,4]triazin-5-yl)-2-methoxyphenyl)carbamate]	67%	88%	≤ 100 nM
COc1cc(-c2cc(N3CCN(C4CC4)CC3)n3ncnc(N)c23)ccc1NC(=O)OC(C)(C)C [Example 17, tert-butyl (4-(4-amino-7-(4-cyclopropylpiperazin-1-yl)pyrrolo[2,1-f][1,2,4]triazin-5-yl)-2-methoxyphenyl)carbamate]	53%	59%	1000 to 10000 nM
COc1cc(-c2cc(N3CC4(CC(N(C)C)C4)C3)n3ncnc(N)c23)ccc1NC(=O)OC(C)(C)C [Example 18, tert-butyl (4-(4-amino-7-(6-(dimethylamino)-2-azaspiro[3.3]heptan-2-yl)pyrrolo[2,1-f][1,2,4]triazin-5-yl)-2-methoxyphenyl)carbamate]	39%	81%	100 to 1000 nM
COc1cc(-c2cc(N3CCC(CN(C)C)CC3)n3ncnc(N)c23)ccc1NC(=O)OC(C)(C)C [Example 19, tert-butyl (4-(4-amino-7-(4-((dimethylamino)methyl)piperidin-1-yl)pyrrolo[2,1-f][1,2,4]triazin-5-yl)-2-methoxyphenyl)carbamate]	69%	86%	≤ 100 nM
COc1cc(-c2cc(N3CCC(CN(C)C)C3)n3ncnc(N)c23)ccc1NC(=O)OC(C)(C)C (stereo not drawn) [Example 20, tert-butyl (4-(4-amino-7-(3-((dimethylamino)methyl)pyrrolidin-1-yl)pyrrolo[2,1-f][1,2,4]triazin-5-yl)-2-methoxyphenyl)carbamate]	36%	70%	100 to 1000 nM
COc1cc(-c2cc(N3CCC4(CC3)CN(C)C4)n3ncnc(N)c23)ccc1NC(=O)OC(C)(C)C [Example 21, tert-butyl (4-(4-amino-7-(2-methyl-2,7-diazaspiro[3.5]nonan-7-yl)pyrrolo[2,1-f][1,2,4]triazin-5-yl)-2-methoxyphenyl)carbamate]	67%	92%	100 to 1000 nM
COc1cc(-c2cc(N3CCC4(CCN(C)C4)CC3)n3ncnc(N)c23)ccc1NC(=O)OC(C)(C)C [Example 22, tert-butyl (4-(4-amino-7-(2-methyl-2,8-diazaspiro[4.5]decan-8-yl)pyrrolo[2,1-f][1,2,4]triazin-5-yl)-2-methoxyphenyl)carbamate]	60%	87%	100 to 1000 nM
COc1cc(-c2cc(N3CCC4(CCCN4)CC3)n3ncnc(N)c23)ccc1NC(=O)OC(C)(C)C [Example 23, tert-butyl (4-(4-amino-7-(1,8-diazaspiro[4.5]decan-8-yl)pyrrolo[2,1-f][1,2,4]triazin-5-yl)-2-methoxyphenyl)carbamate]	58%	87%	≤ 100 nM
COc1cc(-c2cc(N3CCC4(CCCN4C)CC3)n3ncnc(N)c23)ccc1NC(=O)OC(C)(C)C [Example 24, tert-butyl (4-(4-amino-7-(1-methyl-1,8-diazaspiro[4.5]decan-8-yl)pyrrolo[2,1-f][1,2,4]triazin-5-yl)-2-methoxyphenyl)carbamate]	50%	82%	100 to 1000 nM
COc1cc(-c2cc(N3CCC4NCCC4C3)n3ncnc(N)c23)ccc1NC(=O)OC(C)(C)C (stereo not drawn) [Example 25, tert-butyl (4-(4-amino-7-(octahydro-5H-pyrrolo[3,2-c]pyridin-5-yl)pyrrolo[2,1-f][1,2,4]triazin-5-yl)-2-methoxyphenyl)carbamate]	28%	76%	100 to 1000 nM
